Reference: patent publication US12559461B2, “Antibiotic adjuvant compounds” (UNIVERSITY OF NOTRE DAME DU LAC, priority 2020, dated 2026)
Where two headings read alike, the source gives them in different places. Values belong to the compound of their own block, whether it stands above or below them.

How the values were obtained:
Type in all cases: cell-based, Acinetobacter baumannii
AB5075 [1] = assay: Broth microdilution clarithromycin (CLR) potentiation and dose-response of adjuvant
Procedure: (§1) Bacterial Strains and Antimicrobial Agents. Acinetobacter baumannii clinical isolate 5075 was obtained from Dr. Colin Manoil at the University of Washington. Colonies were grown on lysogeny broth (LB) agar. Cation-adjusted Mueller-Hinton Broth (CAMHB) (catalog number 212322) were purchased from BD Diagnostics. LB broth was purchased from Fisher Scientific (catalog number BP9722-2). […] Colistin sulfate salt (catalog number C4461) was purchased from Sigma Aldrich. All assays were completed in duplicate and repeated at least two separate times. All compounds were dissolved as their HCl salts in molecular biology grade DMSO as 10 or 100 mM stock solutions and stored at −20° C. Colistin was dissolved in sterile water while clarithromycin was dissolved in molecular biology grade DMSO.
(§2) Broth microdilution method for antibiotic potentiation. Day cultures (6 h) of bacteria in CAMHB were subcultured to 5×10^5 CFU/mL in CAMHB. Aliquots (4 mL) were placed in culture tubes and dosed with compound from 10 mM stock samples to give the desired concentration of the compound to be tested against the particular bacterial strain; this insured non-toxic DMSO concentrations ≤0.3% in each well. 1 mL of the resulting solution was placed in a separate culture and dosed with antibiotic at the highest concentration to be tested. Bacteria treated with antibiotic alone served as the control. Row one of a 96-well plate was filled with 200 μL of the antibiotic/2-AI solution, and rows 2-12 were filled with 100 μL each of the remaining 4 mL of bacterial subculture containing adjuvant at the desired concentration, except for the control lane which contained only bacterial subculture. Row one was then mixed five times, and 100 μL was transferred to row two, which was then mixed five times before being transferred to row three. This process was repeated until all rows had been mixed, except for row twelve which would have only 2-AI to serve as a control to monitor potential toxicity. The 96-well plate was then covered in Glad Press n'Seal and incubated under stationary conditions at 37° C. for 16 h. MIC values were determined as the lowest concentration at which no bacterial growth was observed, and fold reductions were determined by comparison to antibiotic control lane.
Dose-response of Adjuvant Assay. The procedure for ‘broth microdilution method for antibiotic potentiation’ was followed using 4 mL aliquots of adjuvant at various concentrations: 0, 5, 7.5, 10, 15, 20, 25, and 30 μM.

AB5075 [2] = assay: Broth microdilution MIC of compound alone (standalone toxicity)
Procedure: as §1
(§3) Broth microdilution method for MIC determination. Day cultures (6 h) of each bacterial strain in cation adjusted Mueller Hinton II broth (CAMHB, Fisher Scientific U.S.) were subcultured to 5×10^5 CFU/mL in CAMHB. Aliquots (1 mL) were placed in culture tubes and compound was added from 10 mM stock samples in DMSO, such that compound concentration equaled highest concentration tested (200 μM). Samples were then aliquoted (200 μL) into the first wells of a 96-well plate, with all remaining wells being filled with 100 μL of initial bacterial subculture. Row one wells were mixed five times, before 100 μL was transferred to row two. Row two was then mixed five times, and 100 μL was transferred to row three. This process was repeated until the final row had been mixed; this served to serially dilute the compound. Plates were then covered with GLAD Press n'Seal and incubated under stationary conditions at 37° C. for 16 h. MIC values were then recorded as the lowest concentration at which no bacterial growth was observed.

[3] = tested on: A. baumannii isolates (23 strains); assay: Minimum inhibitory concentration against AB isolates; conditions: Acinetobacter baumannii, compound alone, read-out: Minimum inhibitory concentration of compound
Procedure: as §3

[4] = tested on: A. baumannii isolates (23 strains); assay: Clarithromycin potentiation against AB isolates; conditions: adjuvant at 7.5 μM
Procedure: as §2

SMILES: Cl.Nc1nc(-c2ccc(NC(=O)c3cc(Cl)cc(Cl)c3)cc2Cl)c[nH]1 [Compound 10e, N-(4-(2-amino-1H-imidazol-4-yl)-3-chlorophenyl)-3,5-dichlorobenzamide hydrochloride]
- CLR MIC (AB5075 [1]; compound tested at 10 μM): 8 µg/mL
- CLR MIC (AB5075 [1]; compound tested at 20 μM): 0.5 µg/mL
- Fold Reduction of CLR MIC (AB5075 [1]; compound tested at 20 μM): 64 fold
- CLR MIC (AB5075 [1]; compound tested at 30 μM): 0.5 µg/mL
- Fold Reduction of CLR MIC (AB5075 [1]; compound tested at 30 μM): 64 fold
- MIC (AB5075 [2]; Acinetobacter baumannii): > 200 µM

SMILES: Cl.Nc1nc(-c2ccc(NC(=O)c3cc(Br)cc(Br)c3)cc2F)c[nH]1 [Compound 15a, N-(4-(2-amino-1H-imidazol-4-yl)-3-fluorophenyl)-3,5-dibromobenzamide hydrochloride]
- CLR MIC (AB5075 [1]; compound tested at 10 μM): 16 µg/mL
- Fold Reduction of CLR MIC (AB5075 [1]; compound tested at 10 μM): 2 fold
- CLR MIC (AB5075 [1]; compound tested at 20 μM): 8 µg/mL
- Fold Reduction of CLR MIC (AB5075 [1]; compound tested at 20 μM): 4 fold
- CLR MIC (AB5075 [1]; compound tested at 30 μM): 2 µg/mL
- Fold Reduction of CLR MIC (AB5075 [1]; compound tested at 30 μM): 16 fold
- MIC (AB5075 [2]; Acinetobacter baumannii): > 200 µM
- MIC (AB5075 [2]; hydrochloride): >200 µM

SMILES: Cl.Nc1nc(-c2ccc(NC(=O)Nc3cc(Br)cc(Br)c3)cc2)c[nH]1 [Compound 20a, 1-(4-(2-amino-1H-imidazol-4-yl)phenyl)-3-(3,5-dibromophenyl)urea hydrochloride]
- CLR MIC (AB5075 [1]; compound tested at 5 μM): 4 µg/mL
- Fold Reduction of CLR MIC (AB5075 [1]; compound tested at 5 μM): 8 fold
- CLR MIC (AB5075 [1]; compound tested at 7.5 μM): 0.25 µg/mL
- Fold Reduction of CLR MIC (AB5075 [1]; compound tested at 7.5 μM): 128 fold
- CLR MIC (AB5075 [1]; compound tested at 15 μM): 0.125 µg/mL
- Fold Reduction of CLR MIC (AB5075 [1]; compound tested at 15 μM): 256 fold
- MIC ([3]; A. baumannii strain 3560): 25 µM
- MIC ([3]; A. baumannii strain 3785): 50 µM
- MIC ([3]; A. baumannii strain 3806): 25 µM
- MIC ([3]; A. baumannii strain 3927): 100 µM
- MIC ([3]; A. baumannii strain 4025): 100 µM
- MIC ([3]; A. baumannii strain 4026): 50 µM
- MIC ([3]; A. baumannii strain 4027): 50 µM
- MIC ([3]; A. baumannii strain 4052): 50 µM
- MIC ([3]; A. baumannii strain 4269): 50 µM
- MIC ([3]; A. baumannii strain 4448): 100 µM
- MIC ([3]; A. baumannii strain 4456): 25 µM
- MIC ([3]; A. baumannii strain 4490): 100 µM
- MIC ([3]; A. baumannii strain 4498): 50 µM
- MIC ([3]; A. baumannii strain 4795): 25 µM
- MIC ([3]; A. baumannii strain 4857): 50 µM
- MIC ([3]; A. baumannii strain 4878): 50 µM
- MIC ([3]; A. baumannii strain 4957): 50 µM
- MIC ([3]; A. baumannii strain 4991): 50 µM
- MIC ([3]; A. baumannii strain 5001): 50 µM
- MIC ([3]; A. baumannii strain 5197): 25 µM
- MIC ([3]; A. baumannii strain 5256): 25 µM
- MIC ([3]; A. baumannii strain 5711): 25 µM
- MIC ([3]; A. baumannii strain 8967): 100 µM
- CLR MIC + adjuvant ([4]; A. baumannii strain 3560): 1 µg/mL
- CLR MIC + adjuvant ([4]; A. baumannii strain 3785): 1 µg/mL
- CLR MIC + adjuvant ([4]; A. baumannii strain 3806): 0.25 µg/mL
- CLR MIC + adjuvant ([4]; A. baumannii strain 3927): 0.5 µg/mL
- CLR MIC + adjuvant ([4]; A. baumannii strain 4025): 1 µg/mL
- CLR MIC + adjuvant ([4]; A. baumannii strain 4026): 1 µg/mL
- CLR MIC + adjuvant ([4]; A. baumannii strain 4027): 1 µg/mL
- CLR MIC + adjuvant ([4]; A. baumannii strain 4052): 0.5 µg/mL
- CLR MIC + adjuvant ([4]; A. baumannii strain 4269): 2 µg/mL
- CLR MIC + adjuvant ([4]; A. baumannii strain 4448): 0.5 µg/mL
- CLR MIC + adjuvant ([4]; A. baumannii strain 4456): 1 µg/mL
- CLR MIC + adjuvant ([4]; A. baumannii strain 4490): 1 µg/mL
- CLR MIC + adjuvant ([4]; A. baumannii strain 4498): 2 µg/mL
- CLR MIC + adjuvant ([4]; A. baumannii strain 4795): 0.5 µg/mL
- CLR MIC + adjuvant ([4]; A. baumannii strain 4857): 0.5 µg/mL
- CLR MIC + adjuvant ([4]; A. baumannii strain 4878): 0.5 µg/mL
- CLR MIC + adjuvant ([4]; A. baumannii strain 4957): 0.5 µg/mL
- CLR MIC + adjuvant ([4]; A. baumannii strain 4991): 0.5 µg/mL
- CLR MIC + adjuvant ([4]; A. baumannii strain 5001): 1 µg/mL
- CLR MIC + adjuvant ([4]; A. baumannii strain 5197): 1 µg/mL
- CLR MIC + adjuvant ([4]; A. baumannii strain 5256): 0.25 µg/mL
- CLR MIC + adjuvant ([4]; A. baumannii strain 5711): 1 µg/mL
- CLR MIC + adjuvant ([4]; A. baumannii strain 8967): 0.25 µg/mL
- MIC (AB5075 [2]; Acinetobacter baumannii): 50 µM

SMILES: Cl.Nc1nc(-c2ccc(NC(=O)Nc3cc(Cl)cc(Cl)c3)cc2)c[nH]1 [Compound 20b, 1-(4-(2-amino-1H-imidazol-4-yl)phenyl)-3-(3,5-dichlorophenyl)urea hydrochloride]
- CLR MIC (AB5075 [1]; compound tested at 5 μM): 8 µg/mL
- Fold Reduction of CLR MIC (AB5075 [1]; compound tested at 5 μM): 4 fold
- CLR MIC (AB5075 [1]; compound tested at 7.5 μM): 0.5 µg/mL
- Fold Reduction of CLR MIC (AB5075 [1]; compound tested at 7.5 μM): 64 fold
- MIC (AB5075 [2]; Acinetobacter baumannii): 25 µM

SMILES: Cl.Nc1nc(-c2ccc(NC(=O)Nc3ccc(Cl)c(Cl)c3)cc2)c[nH]1 [Compound 20c, 1-(4-(2-amino-1H-imidazol-4-yl)phenyl)-3-(3,4-dichlorophenyl)urea hydrochloride]
- CLR MIC (AB5075 [1]; compound dosed at higher concentrations (≥20 μM)): ≤ 0.0625 µg/mL
- CLR MIC (AB5075 [1]; compound tested at 5 μM): 8 µg/mL
- Fold Reduction of CLR MIC (AB5075 [1]; compound tested at 5 μM): 4 fold
- CLR MIC (AB5075 [1]; compound tested at 7.5 μM): 2 µg/mL
- Fold Reduction of CLR MIC (AB5075 [1]; compound tested at 7.5 μM): 16 fold
- CLR MIC (AB5075 [1]; compound tested at 10 μM): 0.25 µg/mL
- Fold Reduction of CLR MIC (AB5075 [1]; compound tested at 10 μM): 128 fold
- CLR MIC (AB5075 [1]; compound tested at 20 μM): ≤0.0625 µg/mL
- Fold Reduction of CLR MIC (AB5075 [1]; compound tested at 20 μM): ≥512 fold
- MIC (AB5075 [2]; Acinetobacter baumannii): 100 µM

Now from value to compound, other results behind:

- CLR MIC (AB5075 [1]; compound tested at 7.5 μM): 16 µg/mL
- CLR MIC (AB5075 [1]; compound tested at 10 μM): 8 µg/mL
- Fold Reduction of CLR MIC (AB5075 [1]; compound tested at 10 μM): 4 fold
- CLR MIC (AB5075 [1]; compound tested at 15 μM): 0.25 µg/mL
- Fold Reduction of CLR MIC (AB5075 [1]; compound tested at 15 μM): 128 fold
SMILES: Cl.Nc1nc(-c2ccc(NC(=O)c3ccc(C(F)(F)F)c(Cl)c3)cc2F)c[nH]1 [Compound 17a, N-(4-(2-amino-1H-imidazol-4-yl)-3-fluorophenyl)-3-chloro-4-(trifluoromethyl)benzamide hydrochloride]
- MIC (AB5075 [2]; Acinetobacter baumannii): 50 µM

- CLR MIC (AB5075 [1]; compound tested at 7.5 μM): 8 µg/mL
- Fold Reduction of CLR MIC (AB5075 [1]; compound tested at 7.5 μM): 4 fold
- CLR MIC (AB5075 [1]; compound tested at 10 μM): 2 µg/mL
- Fold Reduction of CLR MIC (AB5075 [1]; compound tested at 10 μM): 16 fold
- CLR MIC (AB5075 [1]; compound tested at 15 μM): 0.25 µg/mL
- Fold Reduction of CLR MIC (AB5075 [1]; compound tested at 15 μM): 128 fold
SMILES: Cl.Nc1nc(-c2ccc(NC(=O)c3ccc(Cl)c(C(F)(F)F)c3)cc2F)c[nH]1 [Compound 17b, N-(4-(2-amino-1H-imidazol-4-yl)-3-fluorophenyl)-4-chloro-3-(trifluoromethyl)benzamide hydrochloride]
- MIC (AB5075 [2]; Acinetobacter baumannii): 50 µM
